The text below walks through data of patent publication US8648096B2, “N-methylaminomethyl isoindole compounds and compositions comprising and methods of using the same” (Celgene Corporation, priority 2006, dated 2014).

In the case of `CN(Cc1cccc2c1CN(C1CCC(=O)NC1=O)C2=O)C(=O)Nc1cccc2ccccc12` (stereo not shown) [Example 5.41, 1-[2-(2,6-dioxo-piperidin-3-yl)-1-oxo-2,3-dihydro-1H-isoindol-4-ylmethyl]-1-methyl-3-naphthalen-1-yl-urea], the melting point was in the range of 292 to 294 °C.
In the case of `CCCNC(=O)N(C)Cc1cccc2c1CN(C1CCC(=O)NC1=O)C2=O` (stereo not shown) [Example 5.30, 1-[2-(2,6-dioxo-piperidin-3-yl)-1-oxo-2,3-dihydro-1H-isoindol-4-ylmethyl]-1-methyl-3-propyl-urea], the melting point fell in the range of 220 to 222 °C.
Molecule `CN(Cc1cccc2c1CN(C1CCC(=O)NC1=O)C2=O)C(=O)Nc1cccc(C(F)(F)F)c1` (stereo not shown) [Example 5.34, 1-[2-(2,6-dioxo-piperidin-3-yl)-1-oxo-2,3-dihydro-1H-isoindol-4-ylmethyl]-1-methyl-3-(3-trifluoromethyl-phenyl)-urea] showed a melting point of 198 to 200 °C.
Molecule `CN(Cc1cccc2c1C(=O)N(C1CCC(=O)NC1=O)C2=O)C(=O)OC(C)(C)C` (stereo not shown) [Example 5.1, [2-(2,6-dioxo-piperidin-3-yl)-1,3-dioxo-2,3-dihydro-1H-isoindol-4-ylmethyl]-methyl-carbamic acid T-butyl ester] returned a melting point of 138 to 140 °C.
As to `CN(Cc1cccc2c1CN(C1CCC(=O)NC1=O)C2=O)C(=O)Nc1cc(Cl)cc(Cl)c1` (stereo not shown) [Example 5.37, 3-(3,5-dichloro-phenyl)-1-[2-(2,6-dioxo-piperidin-3-yl)-1-oxo-2,3-dihydro-1H-isoindol-4-ylmethyl]-1-methyl-urea], the melting point lay in the range of 285 to 287 °C.
As for `CN(Cc1cccc2c1CN(C1CCC(=O)NC1=O)C2=O)C(=O)Nc1cccc(Cl)c1` (stereo not shown) [Example 5.32, 3-(3-chloro-phenyl)-1-[2-(2,6-dioxo-piperidin-3-yl)-1-oxo-2,3-dihydro-1H-isoindol-4-ylmethyl]-1-methyl-urea], the melting point is 193 to 195 °C.
As for `CN(Cc1cccc2c1C(=O)N(C1CCC(=O)NC1=O)C2=O)C(=O)NC(C)(C)C` (stereo not shown) [Example 5.36, 3-tert-butyl-1-[2-(2,6-dioxo-piperidin-3-yl)-1,3-dioxo-2,3-dihydro-1H-isoindol-4-ylmethyl]-1-methyl-urea], the figure is 188 to 190 °C; as for `Cc1cccc(NC(=O)N(C)Cc2cccc3c2CN(C2CCC(=O)NC2=O)C3=O)c1` (stereo not shown) [Example 5.29, 1-[2-(2,6-dioxo-piperidin-3-yl)-1-oxo-2,3-dihydro-1H-isoindol-4-ylmethyl]-1-methyl-3-M-tolyl-urea], 208 to 210 °C.
Next, `CN(Cc1cccc2c1C(=O)N(C1CCC(=O)NC1=O)C2=O)C(=O)Nc1cccc(Cl)c1` (stereo not shown) [Example 5.35, 3-(3-chloro-phenyl)-1-[2-(2,6-dioxo-piperidin-3-yl)-1,3-dioxo-2,3-dihydro-1H-isoindol-4-ylmethyl]-1-methyl-urea]: 193 to 195 °C.
Regarding `Cc1ccc(NC(=O)N(C)Cc2cccc3c2C(=O)N(C2CCC(=O)NC2=O)C3=O)cc1C` (stereo not shown) [Example 5.40, 3-(3,4-dimethyl-phenyl)-1-[2-(2,6-dioxo-piperidin-3-yl)-1,3-dioxo-2,3-dihydro-1H-isoindol-4-ylmethyl]-1-methyl-urea], the melting point lay within 202 to 204 °C.
